Values quoted from earlier work in article PMC4791274, “Cerdulatinib, a novel dual SYK/JAK kinase inhibitor, has broad anti-tumor activity in both ABC and GCB types of diffuse large B cell lymphoma” (Oncotarget, 2015).

Experiments:
[1] = system: relapsed/refractory (R/R) DLBCL patients; design: method as in PMID 19965662; details: 5 of 23 R/R DLBCL patients, phase I/II; cited from earlier work
DLBCL patients = details: available clinical data; cited from earlier work
DLBCL cells = details: cited from earlier work
LY3 cell line = system: LY3 cell line; design: method as in PMID 22025527; details: cited from earlier work
DHL2 cell line = system: DHL2 cell line; design: method as in PMID 22025527; details: cited from earlier work
LY4 cell line = system: LY4 cell line; design: method as in PMID 22025527; details: LY4, lacks surface immunoglobulins; cited from earlier work
R/R patients (DLBCL) = system: R/R patients (DLBCL); design: method as in PMID 17389337; details: number of patients, in 55 R/R patients; cited from earlier work
R/R DLBCL = system: R/R DLBCL; design: method as in PMID 26193343; details: phase II, 80 R/R DLBCL; cited from earlier work

Question: For `COc1cc(Nc2ncc(F)c(Nc3ccc4c(n3)N(COP(=O)(O)O)C(=O)C(C)(C)O4)n2)cc(OC)c1OC` [Fostamatinib], which objective response [1] is on record?
Answer: 22%

Question: What about the “fraction of DLBCL patients in whom active” value (DLBCL patients) of the same compound?
Answer: ≤ 20%

Question: For `Cc1cccc(Nc2nc(N[C@@H]3CCCC[C@@H]3N)ncc2C(N)=O)c1` [PRT060318], which “impact on cell viability” value (DLBCL cells) is on record?
Answer: minimal impact on cell viability

Question: And the “sensitivity to SYK selective inhibitor” value (LY3 cell line)?
Answer: insensitive

Question: And the “sensitivity to SYK selective inhibitor” value (DHL2 cell line)?
Answer: insensitive

Question: And the “sensitivity to selective SYK inhibition” value (LY4 cell line)?
Answer: resistant

Question: Which “impact on cell viability” value (DLBCL cells) does the source give for `Cc1nc(Nc2ncc(C(=O)Nc3c(C)cccc3Cl)s2)cc(N2CCN(CCO)CC2)n1` [dasatinib] here?
Answer: minimal impact on cell viability

Question: Which complete responses (R/R patients (DLBCL)) does the source give for `Cn1cc(C2=C(c3cn(C4CCN(Cc5ccccn5)CC4)c4ccccc34)C(=O)NC2=O)c2ccccc21` [Enzastaurin] here?
Answer: 3

Question: And the stable disease (R/R patients (DLBCL))?
Answer: 1

Question: And the “fraction of DLBCL patients in whom active” value (DLBCL patients)?
Answer: ≤ 20%

Question: Which results are given for `C=CC(=O)N1CCC[C@@H](n2nc(-c3ccc(Oc4ccccc4)cc3)c3c(N)ncnc32)C1` [ibrutinib]?
Answer: response rate of all DLBCL tumors (R/R DLBCL): 19%; responsive tumors, ABC subtype (R/R DLBCL): 37%; responsive tumors, GCB subtype (R/R DLBCL): 5%
